According to patent publication US12286442B2, “Methods and materials for increasing transcription factor eb polypeptide levels” (University of Pittsburgh—Of the Commonwealth System of …, priority 2019, dated 2025):

Columns and labels:
TFEB = test: High content screen measuring TFEB nuclear accumulation (TFEB nuclear/cytosol ratio) in BEAS-2B cells stably expressing TFEB-EGFP; type: cell-based, human; conditions: 18 hours incubation
Method: FIG. 3. High content screen assay (384 well) measuring TFEB nuclear accumulation. Approximately 2500 primary and immortalized human bronchial epithelial cells (BEAS-2B) stably expressing TFEB-EGFP in 25 μL of HITEs media with 10% FBS were dispensed into 384 well plate (Black with glass bottom) and incubated for 8 hours. Compound serial dilution (DMEM low glucose media with 2% FBS, 25 μL volume) were prepared using a robotic liquid hander. Compound solutions were then added to the cell plate and incubated for 18 hours. Cells were then fixed with 4% PFA followed by DAPI staining. TFEB localization was imaged on the GFP channel along with the DAPI signal using a Cytation 5 high content imager. Images were processed through Biotek Gen5 software; specifically, the DAPI signal was used as the primary mask to quantify the nuclear TFEB-GFP signal. The cytosolic TFEB-GFP signal was quantified through expanding the primary mask. The TFEB nuclear/cytosol ratios were calculated from nuclear TFEB-GFP signal/cytosol TFEB-GFP signal, which determined the compound efficacy. […] Compound activities (μM) were determined by the minimal compound concentration needed to increase TFEB nuclear/cytosol ratio by 25%. Activity: “−” equals >25 μM; “+” equals between 25 μM and >10 μM; “++” equals between ≤10 μM and >1 μM; and “+++” equals […]. N=4.
(§1) Approximately 2300 primary and immortalized human bronchial epithelial cells (BEAS-2B) stably expressing TFEB-EGFP in 25 μL of HITEs media with 10% FBS were dispensed into 384 well plate (Black with glass bottom) and incubated for 8 hours. Compound serial dilution (DMEM low glucose media with 2% FBS, 25 μL volume) were prepared using a robotic liquid hander. Compound solution were then added to the cell plate and incubated for 18 hours. Cells were then fixed with 4% PFA followed by DAPI staining. TFEB localization was imaged on the GFP channel along with the DAPI signal using a Cytation 5 high content imager. Images were processed through Biotek Gen5 software. Specifically, the DAPI signal was used as the primary mask to quantify the nuclear TFEB-GFP signal. Cytosolic TFEB-GFP signal was quantified through expanding the primary mask. The TFEB nuclear/cytosol ratios were calculated from nuclear TFEB-GFP signal/cytosol TFEB-GFP signal, which determined the compound efficacies.
Compounds efficacies (μM) were determined by the minimal compound concentration needed to increase TFEB nuclear/cytosol ratio by 25%. Activity: “+” equals >25 μM; “++” equals between ≤25 μM and >1 μM; and “+++” equals ≤1 μM.
A high-content imaging screen was conducted using Beas2B cells that stably express GFP-TFEB.

BEAS-2B cells = test: Toxicity: compound concentration needed to induce greater than 50 percent of cell loss; type: cell-based, human; conditions: 18 hours incubation
Method: as §1
Toxicity was determined by determining the compound concentration needed to induce greater than 50 percent of cell loss. For toxicity, cell loss of greater than 50 percent at a concentration that equals or is greater than 25 μM was represented as cell loss of greater than 50 percent at a concentration less than 25 μM and greater than 1 μM was represented as and cell loss of greater than 50 percent at a concentration that equals or is less than 1 μM was represented as “+++.” The assay results for compounds 1-202, 214-248, 332, 333, and 352-402 are shown in Table A.

Row | Compound | efficacy (minimal compound concentration needed to increase TFEB nuclear/cytosol ratio by 25%) (TFEB) | toxicity (compound concentration needed to induce greater than 50 percent of cell loss) (BEAS-2B cells)
1 | Cc1cc(F)cc(Nc2nc(-c3ccncc3)nc3ccccc23)c1 [Compound 1] | +++ (“+++” equals ≤1 μM) | + (cell loss of greater than 50 percent at a concentration that equals or is greater than 25 μM was represented as)
2 | Cc1cc(C)cc(Nc2nc(-c3ccncc3)nc3ccccc23)c1 [Compound 2] | +++ (“+++” equals ≤1 μM) | + (cell loss of greater than 50 percent at a concentration that equals or is greater than 25 μM was represented as)
3 | NC(=O)c1cccc(Nc2nc(-c3ccncc3)nc3ccccc23)c1 [Compound 3] | +++ (“+++” equals ≤1 μM) | + (cell loss of greater than 50 percent at a concentration that equals or is greater than 25 μM was represented as)
4 | CN(c1cccc(F)c1)c1nc(-c2ccncc2)nc2ccccc12 [Compound 4] | +++ (“+++” equals ≤1 μM) | +++ (cell loss of greater than 50 percent at a concentration that equals or is less than 1 μM was represented as “+++.”)
5 | O=C(c1cccc(F)c1)c1nc(-c2ccncc2)nc2ccccc12 [Compound 5] | + (“+” equals >25 μM) | + (cell loss of greater than 50 percent at a concentration that equals or is greater than 25 μM was represented as)
6 | OC(c1cccc(F)c1)c1nc(-c2ccncc2)nc2ccccc12 (centres unmarked) [Compound 6] | + (“+” equals >25 μM) | + (cell loss of greater than 50 percent at a concentration that equals or is greater than 25 μM was represented as)
7 | Fc1cccc(Cc2nc(-c3ccncc3)nc3ccccc23)c1 [Compound 7] | + (“+” equals >25 μM) | + (cell loss of greater than 50 percent at a concentration that equals or is greater than 25 μM was represented as)
8 | Fc1cccc(Nc2nc(-c3cncnc3)nc3ccccc23)c1 [Compound 8] | + (“+” equals >25 μM) | + (cell loss of greater than 50 percent at a concentration that equals or is greater than 25 μM was represented as)
9 | O=[N+]([O-])c1ccc(-c2nc(Nc3cccc(F)c3)c3ccccc3n2)cc1 [Compound 9] | + (“+” equals >25 μM) | + (cell loss of greater than 50 percent at a concentration that equals or is greater than 25 μM was represented as)
10 | Cc1cc(Nc2nc(-c3ccncc3)nc3ccccc23)cc(C(F)(F)F)c1 [Compound 10] | + (“+” equals >25 μM) | + (cell loss of greater than 50 percent at a concentration that equals or is greater than 25 μM was represented as)
11 | c1ccc2c(Nc3ccc4cn[nH]c4c3)nc(-c3ccncc3)nc2c1 [Compound 11] | +++ (“+++” equals ≤1 μM) | + (cell loss of greater than 50 percent at a concentration that equals or is greater than 25 μM was represented as)
12 | c1ccc2c(Nc3ccc4c(c3)OCO4)nc(-c3ccncc3)nc2c1 [Compound 12] | +++ (“+++” equals ≤1 μM) | + (cell loss of greater than 50 percent at a concentration that equals or is greater than 25 μM was represented as)
13 | c1ccc2c(Nc3ccc4cnccc4c3)nc(-c3ccncc3)nc2c1 [Compound 14] | + (“+” equals >25 μM) | + (cell loss of greater than 50 percent at a concentration that equals or is greater than 25 μM was represented as)
14 | FC1(F)Oc2ccc(Nc3nc(-c4ccncc4)nc4ccccc34)cc2O1 [Compound 17] | + (“+” equals >25 μM) | + (cell loss of greater than 50 percent at a concentration that equals or is greater than 25 μM was represented as)
15 | Fc1cc(Nc2nc(-c3ccncc3)nc3ccccc23)cc(C(F)(F)F)c1 [Compound 18] | + (“+” equals >25 μM) | + (cell loss of greater than 50 percent at a concentration that equals or is greater than 25 μM was represented as)
16 | COc1cc(F)cc(Nc2nc(-c3ccncc3)nc3ccccc23)c1 [Compound 19] | + (“+” equals >25 μM) | + (cell loss of greater than 50 percent at a concentration that equals or is greater than 25 μM was represented as)
17 | COc1cc(C)cc(Nc2nc(-c3ccncc3)nc3ccccc23)c1 [Compound 20] | ++ (“++” equals between ≤25 μM and >1 μM) | + (cell loss of greater than 50 percent at a concentration that equals or is greater than 25 μM was represented as)
18 | CCc1cc(F)cc(Nc2nc(-c3ccncc3)nc3ccccc23)c1 [Compound 21] | + (“+” equals >25 μM) | + (cell loss of greater than 50 percent at a concentration that equals or is greater than 25 μM was represented as)
19 | CCc1cc(C)cc(Nc2nc(-c3ccncc3)nc3ccccc23)c1 [Compound 22] | + (“+” equals >25 μM) | + (cell loss of greater than 50 percent at a concentration that equals or is greater than 25 μM was represented as)
20 | Cn1ncc2ccc(Nc3nc(-c4ccncc4)nc4ccccc34)cc21 [Compound 23] | +++ (“+++” equals ≤1 μM) | + (cell loss of greater than 50 percent at a concentration that equals or is greater than 25 μM was represented as)
21 | c1ccc2c(Nc3ccc4cnsc4c3)nc(-c3ccncc3)nc2c1 [Compound 24] | +++ (“+++” equals ≤1 μM) | + (cell loss of greater than 50 percent at a concentration that equals or is greater than 25 μM was represented as)
22 | c1ccc2c(Nc3ccc4cc[nH]c4c3)nc(-c3ccncc3)nc2c1 [Compound 25] | +++ (“+++” equals ≤1 μM) | ++ (cell loss of greater than 50 percent at a concentration less than 25 μM and greater than 1 μM was represented as)
23 | Cn1ccc2cc(Nc3nc(-c4ccncc4)nc4ccccc34)ccc21 [Compound 26] | +++ (“+++” equals ≤1 μM) | +++ (cell loss of greater than 50 percent at a concentration that equals or is less than 1 μM was represented as “+++.”)
24 | c1ccc2c(Nc3ccc4scnc4c3)nc(-c3ccncc3)nc2c1 [Compound 27] | +++ (“+++” equals ≤1 μM) | + (cell loss of greater than 50 percent at a concentration that equals or is greater than 25 μM was represented as)
25 | Cn1cnc2cc(Nc3nc(-c4ccncc4)nc4ccccc34)ccc21 [Compound 28] | + (“+” equals >25 μM) | + (cell loss of greater than 50 percent at a concentration that equals or is greater than 25 μM was represented as)
